In US20250215030A1, “STAT MODULATORS AND USES THEREOF” (Recludix Pharma, Inc., priority 2022, published 2025):

What was measured:
[1] = biological target: T1, Recombinant STAT3 protein (STAT3(G127-I722)) (Homo sapiens, UniProt P40763); test: STAT3 Fluorescence Polarization (FP) Assay; type: binding; conditions: STAT3(G127-I722) 25 nM, probe 5-FAM-GpYLPQTV-NH2 2 nM, 45-minute incubation
T1 construct: STAT3(G127-I722)
Summary of the method: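 Serially diluted compounds (1% DMSO) were mixed with 2 nM fluorescent phosphotyrosine peptide and 25 nM STAT3 construct G127-I722, pH 7.4, incubated 45 min at room temperature. IC50 values from fitted polarization curves are reported as categories A (≤100 nM), B, C, D (>10 μM).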

[2] = biological target: T2, Recombinant STAT6 protein (STAT6(W123-T658)) (Homo sapiens, UniProt P42226); test: STAT6 Fluorescence Polarization (FP) Assay; type: binding; conditions: STAT6(W123-T658) 250 nM, probe 5-FAM-ApYKPFQDLI-NH2 2 nM, 45-minute incubation
T2 construct: STAT6(W123-T658)
T2 sequence (P42226 123-658): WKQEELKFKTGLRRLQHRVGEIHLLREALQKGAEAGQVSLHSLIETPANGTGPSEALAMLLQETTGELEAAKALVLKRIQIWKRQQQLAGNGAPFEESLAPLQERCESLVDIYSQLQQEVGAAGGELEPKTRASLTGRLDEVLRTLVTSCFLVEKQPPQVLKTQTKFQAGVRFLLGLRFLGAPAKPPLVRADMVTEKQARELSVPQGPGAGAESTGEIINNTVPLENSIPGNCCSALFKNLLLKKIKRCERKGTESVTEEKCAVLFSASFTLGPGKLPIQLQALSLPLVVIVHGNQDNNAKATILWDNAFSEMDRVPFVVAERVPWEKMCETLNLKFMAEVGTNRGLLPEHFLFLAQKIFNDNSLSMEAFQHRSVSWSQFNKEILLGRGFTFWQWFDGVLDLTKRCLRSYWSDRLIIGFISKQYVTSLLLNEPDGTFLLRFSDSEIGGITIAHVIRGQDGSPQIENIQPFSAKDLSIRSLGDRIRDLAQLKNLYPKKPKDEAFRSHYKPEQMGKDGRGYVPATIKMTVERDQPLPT
Summary of the method: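 Competitive displacement of a fluorescent phosphotyrosine peptide (2 nM) from recombinant STAT6 W123-T658 (250 nM), 45 min at room temperature in 10 mM HEPES pH 7.4, 50 mM NaCl, 2 mM DTT. mP fitted against log compound for IC50, grouped A (≤300 nM) to D (>30 μM).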

T1 sequence (P40763 127-722, species assumed): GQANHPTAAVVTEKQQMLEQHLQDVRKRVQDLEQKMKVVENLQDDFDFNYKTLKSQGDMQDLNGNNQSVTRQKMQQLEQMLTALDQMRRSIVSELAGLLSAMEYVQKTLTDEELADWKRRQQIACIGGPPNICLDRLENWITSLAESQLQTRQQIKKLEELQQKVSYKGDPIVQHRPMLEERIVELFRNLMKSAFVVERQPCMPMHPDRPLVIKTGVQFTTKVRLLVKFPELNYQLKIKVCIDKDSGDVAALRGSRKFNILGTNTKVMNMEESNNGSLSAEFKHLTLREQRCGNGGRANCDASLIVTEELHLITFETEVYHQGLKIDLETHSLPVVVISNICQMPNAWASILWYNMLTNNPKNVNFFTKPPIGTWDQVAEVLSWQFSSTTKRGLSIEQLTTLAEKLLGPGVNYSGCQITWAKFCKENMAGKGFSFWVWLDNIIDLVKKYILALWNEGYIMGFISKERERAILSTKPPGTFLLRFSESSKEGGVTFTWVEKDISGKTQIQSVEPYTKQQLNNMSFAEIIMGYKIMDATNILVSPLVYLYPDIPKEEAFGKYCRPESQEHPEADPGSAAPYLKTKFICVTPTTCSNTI

| Compound | IC50 [1] [µM] | IC50 [2] [µM] |
| --- | --- | --- |
| O=C(N[C@H]1C[C@@H]2C[C@@H]2C[C@H]2CC[C@@H](C(=O)N3CC(c4ncco4)C3)N2C1=O)c1cc2cc(C(F)P(=O)(O)O)ccc2s1 (stereo partly drawn) [Example 322, (fluoro(2-(((3S,6S,7aS,8aR,9aR)-3-(3-(oxazol-2-yl)azetidine-1-carbonyl)-5-oxodecahydro-1H-cyclopropa[d]pyrrolo[1,2-a]azocin-6-yl)carbamoyl)benzo[b]thiophen-5-yl)methyl)phosphonic acid] | < 0.1 | 3 to 30 |
| Cc1cnc(C2CN(C(=O)[C@@H]3CC[C@@H]4C[C@H]5C[C@H]5C[C@H](NC(=O)c5cc6cc(C(F)P(=O)(O)O)ccc6s5)C(=O)N43)C2)o1 (stereo partly drawn) [Example 324, (fluoro(2-(((3S,6S,7aS,8aR,9aR)-3-(3-(5-methyloxazol-2-yl)azetidine-1-carbonyl)-5-oxodecahydro-1H-cyclopropa[d]pyrrolo[1,2-a]azocin-6-yl)carbamoyl)benzo[b]thiophen-5-yl)methyl)phosphonic acid] | 0.1 to 1 | 3 to 30 |
| Cc1noc(C2CN(C(=O)[C@@H]3CC[C@@H]4C[C@H]5C[C@H]5C[C@H](NC(=O)c5cc6cc(C(F)P(=O)(O)O)ccc6s5)C(=O)N43)C2)n1 (stereo partly drawn) [Example 326, (fluoro(2-(((3S,6S,7aS,8aR,9aR)-3-(3-(3-methyl-1,2,4-oxadiazol-5-yl)azetidine-1-carbonyl)-5-oxodecahydro-1H-cyclopropa[d]pyrrolo[1,2-a]azocin-6-yl)carbamoyl)benzo[b]thiophen-5-yl)methyl)phosphonic acid] | 0.1 to 1 | 3 to 30 |
| Cc1nnc(C2CN(C(=O)[C@@H]3CC[C@@H]4C[C@H]5C[C@H]5C[C@H](NC(=O)c5cc6cc(C(F)P(=O)(O)O)ccc6s5)C(=O)N43)C2)o1 (stereo partly drawn) [Example 327, (fluoro(2-(((3S,6S,7aS,8aR,9aR)-3-(3-(5-methyl-1,3,4-oxadiazol-2-yl)azetidine-1-carbonyl)-5-oxodecahydro-1H-cyclopropa[d]pyrrolo[1,2-a]azocin-6-yl)carbamoyl)benzo[b]thiophen-5-yl)methyl)phosphonic acid] | 0.1 to 1 | 3 to 30 |
| Cc1cc(C2CN(C(=O)[C@@H]3CC[C@@H]4C[C@H]5C[C@H]5C[C@H](NC(=O)c5cc6cc(C(F)P(=O)(O)O)ccc6s5)C(=O)N43)C2)on1 (stereo partly drawn) [Example 328, (fluoro(2-(((3S,6S,7aS,8aR,9aR)-3-(3-(3-methylisoxazol-5-yl)azetidine-1-carbonyl)-5-oxodecahydro-1H-cyclopropa[d]pyrrolo[1,2-a]azocin-6-yl)carbamoyl)benzo[b]thiophen-5-yl)methyl)phosphonic acid] | 0.1 to 1 | 3 to 30 |
| NC(=O)N1C[C@H](NC(=O)[C@@H]2CC[C@@H]3C[C@H]4C[C@H]4C[C@H](NC(=O)c4cc5cc(C(F)P(=O)(O)O)ccc5s4)C(=O)N32)[C@@H](F)C1 (stereo partly drawn) [Example 330, ((2-(((3S,6S,7aS,8aR,9aR)-3-(((3S,4S)-1-carbamoyl-4-fluoropyrrolidin-3-yl)carbamoyl)-5-oxodecahydro-1H-cyclopropa[d]pyrrolo[1,2-a]azocin-6-yl)carbamoyl)benzo[b]thiophen-5-yl)fluoromethyl)phosphonic acid] | < 0.1 | 0.3 to 3 |
| Cn1cnnc1C1CN(C(=O)[C@@H]2CC[C@@H]3C[C@@H]4C[C@@H]4C[C@H](NC(=O)c4cc5cc(C(F)P(=O)(O)O)ccc5s4)C(=O)N32)C1 (stereo partly drawn) [Example 331, (fluoro(2-(((3S,6S,7aR,8aS,9aR)-3-(3-(4-methyl-4H-1,2,4-triazol-3-yl)azetidine-1-carbonyl)-5-oxodecahydro-1H-cyclopropa[d]pyrrolo[1,2-a]azocin-6-yl)carbamoyl)benzo[b]thiophen-5-yl)methyl)phosphonic acid] | < 0.1 | 3 to 30 |
